Test [1] is described as follows: Antagonist activity against rat 1A/2A subtype of N-methyl-D-aspartate (NMDA) receptor was determined by electrical assay in xenopus oocytes. Particulars: Oocyte. Type of test: functional, cell-based.
For test [2], the target named is Glutamate NMDA receptor; Grin1/Grin2b (Rattus norvegicus, UniProt P35439+Q00960). Kind of test: Antagonist activity against rat 1A/2B subtype of N-methyl-D-aspartate (NMDA) receptor in xenopus oocytes. Type of test: functional, cell-based, Oocyte.
Sequence of Glutamate NMDA receptor; Grin1/Grin2b (Q00960 whole entry, other chains not shown): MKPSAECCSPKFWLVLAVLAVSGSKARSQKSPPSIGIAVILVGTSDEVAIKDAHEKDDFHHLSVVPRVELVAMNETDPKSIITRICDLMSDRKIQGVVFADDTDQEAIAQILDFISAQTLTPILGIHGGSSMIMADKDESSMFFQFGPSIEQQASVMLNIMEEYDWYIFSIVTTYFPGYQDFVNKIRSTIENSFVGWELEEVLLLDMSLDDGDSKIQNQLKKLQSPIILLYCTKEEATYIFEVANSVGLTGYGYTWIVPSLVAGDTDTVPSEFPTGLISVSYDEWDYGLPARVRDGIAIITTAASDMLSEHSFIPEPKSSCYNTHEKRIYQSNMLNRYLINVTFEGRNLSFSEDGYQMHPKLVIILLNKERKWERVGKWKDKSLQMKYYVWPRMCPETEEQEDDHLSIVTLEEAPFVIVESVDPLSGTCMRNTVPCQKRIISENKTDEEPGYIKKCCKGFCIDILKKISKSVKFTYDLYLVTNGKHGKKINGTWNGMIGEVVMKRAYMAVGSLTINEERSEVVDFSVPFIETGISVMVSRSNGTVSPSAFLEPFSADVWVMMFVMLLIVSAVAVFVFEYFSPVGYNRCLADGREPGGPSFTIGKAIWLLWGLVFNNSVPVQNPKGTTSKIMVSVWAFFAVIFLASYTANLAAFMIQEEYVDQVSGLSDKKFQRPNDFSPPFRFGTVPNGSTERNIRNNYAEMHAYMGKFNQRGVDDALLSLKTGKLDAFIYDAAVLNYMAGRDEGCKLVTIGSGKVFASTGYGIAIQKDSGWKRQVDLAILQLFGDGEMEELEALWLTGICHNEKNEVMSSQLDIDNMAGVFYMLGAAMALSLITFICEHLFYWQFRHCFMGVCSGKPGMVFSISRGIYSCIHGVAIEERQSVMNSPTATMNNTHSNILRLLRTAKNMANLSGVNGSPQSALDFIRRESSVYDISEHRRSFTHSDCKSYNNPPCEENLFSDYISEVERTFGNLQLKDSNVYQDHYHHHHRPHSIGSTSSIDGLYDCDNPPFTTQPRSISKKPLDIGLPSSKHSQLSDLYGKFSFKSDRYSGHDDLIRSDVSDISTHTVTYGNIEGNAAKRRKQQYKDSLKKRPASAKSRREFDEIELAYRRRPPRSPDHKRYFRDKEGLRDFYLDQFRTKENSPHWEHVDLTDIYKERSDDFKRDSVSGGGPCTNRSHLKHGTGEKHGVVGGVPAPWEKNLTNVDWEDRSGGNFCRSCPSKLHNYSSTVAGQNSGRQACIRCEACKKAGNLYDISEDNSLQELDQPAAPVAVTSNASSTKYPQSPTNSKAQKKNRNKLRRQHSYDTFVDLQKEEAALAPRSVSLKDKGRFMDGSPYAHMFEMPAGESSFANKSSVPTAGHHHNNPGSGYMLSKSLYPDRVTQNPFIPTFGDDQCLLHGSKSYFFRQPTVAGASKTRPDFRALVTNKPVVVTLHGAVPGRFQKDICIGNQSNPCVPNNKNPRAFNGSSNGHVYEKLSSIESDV
Test [3] in a line: Antagonist activity against rat 1A/2C subtype of N-methyl-D-aspartate (NMDA) receptor was determined by electrical assay in xenopus oocytes. Type of test: functional, cell-based. Particulars: Oocyte.

Each structure is given as a SMILES string. pIC50: −log10 of the molar value.

By pIC50 is commonly meant −log10 of the IC50, conventionally taken in molar units. For `Oc1ccc(CCN2CCc3c([nH]c4ccccc34)C2)cc1`, the results for the pIC50 in test [1], in test [2] and in test [3] were 4.13, 5.42 and 3.85, respectively.

With `c1ccc(CCCCN2CCc3c([nH]c4ccccc34)C2)cc1`, the negative logarithm of the IC50 (pIC50) in test [1] was 4.17; in test [2] it was 5.48; in test [3], 4.19.

In the case of `Oc1ccc2c3c([nH]c2c1)CN(CCCCc1ccccc1)CC3`, the pIC50 in test [1] is 4.24; in test [2] it was 7.30; in test [3] it was 4.17.

As to `Oc1ccc(CCCN2CCc3c([nH]c4ccccc34)C2)cc1`, the negative-log IC50 (pIC50) in test [1] was 4.38; in test [2] it was 7.06; in test [3] it was 3.77.

In the case of `Oc1ccc2[nH]c3c(c2c1)CCN(CCCCc1ccccc1)C3`, the pIC50 was 4.01 in test [1], 6.85 in test [2] and 3.74 in test [3].

On to `Oc1ccc(CCCNCCCCc2ccccc2)cc1`, for which the pIC50 in test [2] was 7.70.

For `COc1ccc2[nH]c3c(c2c1)CCN(CCCCc1ccccc1)C3`, the negative logarithm of the IC50 (pIC50) in test [1] is 3.96; in test [2], 4.85; in test [3], 3.88.

As to `Oc1ccc(CCCCN2CCc3c([nH]c4ccccc34)C2)cc1`, the pIC50 in test [1] is 4.24; in test [2], 6.25; in test [3] it was 3.82.

Source of the values: ChEMBL document CHEMBL1131743, “Structure-activity relationship for a series of 2-substituted 1,2,3,4-tetrahydro-9H-pyrido[3,4-b]indoles: potent subtype-selective inhibitors of N-methyl-D-aspartate (NMDA) receptors” (Bioorg Med Chem Lett, 1999).
